Results taken from patent US20060281771A1, “SYNERGISTIC MODULATION OF FLT3 KINASE USING AMINOQUINOLINE AND AMINOQUINAZOLINE KINASE MODULATORS” (priority 2005, published 2006).

Columns and labels:
[1] = target: T1, isolated kinase domain of the human FLT3 receptor (a.a. 571-993) (Homo sapiens, UniProt P36888); test: FLT3 fluorescence polarization kinase assay; type: biochemical
T1 construct: human FLT3 receptor (a.a. 571-993)
T1 sequence (P36888 571-993): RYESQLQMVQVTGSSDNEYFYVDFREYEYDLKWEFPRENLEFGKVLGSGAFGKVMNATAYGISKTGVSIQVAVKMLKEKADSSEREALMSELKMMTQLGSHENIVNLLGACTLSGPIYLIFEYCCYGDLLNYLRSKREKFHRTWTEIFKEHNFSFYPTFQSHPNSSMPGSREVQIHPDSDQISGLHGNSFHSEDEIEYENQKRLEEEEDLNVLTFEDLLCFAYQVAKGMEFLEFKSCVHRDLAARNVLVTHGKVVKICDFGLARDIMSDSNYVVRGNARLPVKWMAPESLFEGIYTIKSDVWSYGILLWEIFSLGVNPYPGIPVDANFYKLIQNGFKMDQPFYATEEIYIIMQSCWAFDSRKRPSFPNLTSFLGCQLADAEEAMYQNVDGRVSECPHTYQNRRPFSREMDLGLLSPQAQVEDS
From the text: The FLT3 FP assay utilizes the fluorescein-labeled phosphopeptide and the anti-phosphotyrosine antibody included in the Panvera Phospho-Tyrosine Kinase Kit (Green) supplied by Invitrogen. When FLT3 phosphorylates polyGlu4Tyr, the fluorescein-labeled phosphopeptide is displaced from the anti-phosphotyrosine antibody by the phosphorylated poly Glu4Tyr, thus decreasing the FP value. […] The kinase reaction is stopped with the addition of EDTA. The fluorescein-labeled phosphopeptide and the anti-phosphotyrosine antibody are added and incubated for 30 minutes at room temperature.
All data points are an average of triplicate samples. Inhibition and IC50 data analysis was done with GraphPad Prism using a non-linear regression fit with a multiparamater, sigmoidal dose-response (variable slope) equation.

[2] = target: T2, wild-type FLT3 phosphorylation in Baf3 FLT3 cells (Homo sapiens, UniProt P36888); test: Cell-based FLT3 receptor ELISA; settings: FLT ligand-induced FLT3 phosphorylation
T2 construct: host or cells: Baf3 (murine B cell lymphoma line)
T2 sequence (P36888 27-993): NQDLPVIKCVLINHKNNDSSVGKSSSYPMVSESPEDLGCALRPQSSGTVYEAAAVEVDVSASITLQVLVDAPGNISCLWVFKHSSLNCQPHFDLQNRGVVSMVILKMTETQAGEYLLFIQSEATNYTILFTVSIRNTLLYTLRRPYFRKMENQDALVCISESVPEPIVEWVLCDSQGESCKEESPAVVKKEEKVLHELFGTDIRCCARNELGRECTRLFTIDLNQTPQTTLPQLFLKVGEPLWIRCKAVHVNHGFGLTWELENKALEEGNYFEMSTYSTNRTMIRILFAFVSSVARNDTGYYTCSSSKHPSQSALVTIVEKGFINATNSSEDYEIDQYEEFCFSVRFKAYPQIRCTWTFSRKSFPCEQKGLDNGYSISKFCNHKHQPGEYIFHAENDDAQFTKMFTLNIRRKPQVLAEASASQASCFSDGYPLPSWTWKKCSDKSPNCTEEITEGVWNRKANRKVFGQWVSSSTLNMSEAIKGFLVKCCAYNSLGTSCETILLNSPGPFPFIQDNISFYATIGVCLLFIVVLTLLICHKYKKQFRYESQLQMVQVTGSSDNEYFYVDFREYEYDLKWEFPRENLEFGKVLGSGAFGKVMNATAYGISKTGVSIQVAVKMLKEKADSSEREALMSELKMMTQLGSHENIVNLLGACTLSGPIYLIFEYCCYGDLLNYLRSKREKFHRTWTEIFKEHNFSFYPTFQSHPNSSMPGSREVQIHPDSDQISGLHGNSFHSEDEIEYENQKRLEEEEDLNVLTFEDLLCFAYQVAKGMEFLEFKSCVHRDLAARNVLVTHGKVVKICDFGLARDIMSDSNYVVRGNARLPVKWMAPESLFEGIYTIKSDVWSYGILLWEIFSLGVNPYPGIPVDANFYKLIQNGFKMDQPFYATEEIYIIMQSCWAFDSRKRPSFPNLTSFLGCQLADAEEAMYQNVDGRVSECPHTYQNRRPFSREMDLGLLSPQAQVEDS
Summary of the method: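 Baf3 cells stably expressing wild-type human FLT3 were starved 16 h in 0.5% serum with 0.01 ng/mL IL-3, given compound for 1 h, then stimulated with 100 ng/mL FLT ligand for 10 min at 37 °C. Lysates were captured on anti-FLT3 plates and probed with HRP anti-phosphotyrosine (4G10), read by chemiluminescence. IC50 came from sigmoidal variable-slope fits of triplicates.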

| Structure (SMILES) | IC50 [1] [nM] | IC50 [2] [nM] |
| --- | --- | --- |
| CC(C)c1ccc(NC(=O)NC2CCN(c3ncnc4ccccc34)C2)cc1 (stereo not shown) [Compound 16, 1-(4-Isopropyl-phenyl)-3-(1-quinazolin-4-yl-pyrrolidin-3-yl)urea] | 45 | 242 |
| COc1cc2ncnc(N3CCC(N(C)C(=O)Nc4ccc(C(C)C)cc4)C3)c2cc1OC (stereo not shown) [Compound 19, 1-[1-(6,7-Dimethoxy-quinazolin-4-yl)-pyrrolidin-3-yl]-3-(4-isopropyl-phenyl)-1-methyl-urea] | 68 | 210 |
| COc1cc2ncnc(N3CCCCC3COC(=O)Nc3ccc(C(C)C)cc3)c2cc1OC (stereo not shown) [Compound 33, (4-Isopropyl-phenyl)-carbamic acid 1-(6,7-dimethoxy-quinazolin-4-yl)-piperidin-2-ylmethyl ester] | 1000 | 559 |
| COc1cc2ncnc(N3CCC(OC(=O)Nc4ccc(C(C)C)cc4)C3)c2cc1OC (stereo not shown) [Compound 2, (4-Isopropyl-phenyl)-carbamic acid 1-(6,7-dimethoxy-quinazolin-4-yl)-pyrrolidin-3-yl ester] | 7 | 64 |
| COc1cc2ncnc(N3CCC(CC(=O)Nc4ccc(C(C)C)cc4)CC3)c2cc1OC [Compound 5, 2-[1-(6,7-Dimethoxy-quinazolin-4-yl)-piperidin-4-yl]-N-(4-isopropyl-phenyl)-acetamide] | 12 | 6 |
| COc1cc2ncnc(N3CCCC3COC(=O)Nc3ccc(C(C)C)cc3)c2cc1OC (stereo not shown) [Compound 9] | 25 | 27 |
| COc1cc2ncnc(N3CCC(NC(=O)Nc4ccc(OC(C)C)cc4)C3)c2cc1OC (stereo not shown) [Compound 8, 1-[1-(6,7-Dimethoxy-quinazolin-4-yl)-pyrrolidin-3-yl]-3-(4-isopropoxy-phenyl)-urea] | 23 | 360 |
| COc1cc2ncnc(N3CCCC(COC(=O)Nc4ccc(C(C)C)cc4)C3)c2cc1OC (stereo not shown) [Compound 4] | 11 | 6 |
| COc1cc2ncnc(N3CCC(OC(=O)Nc4ccc(OC(C)C)cc4)CC3)c2cc1OC [Compound 3, (4-Isopropoxy-phenyl)-carbamic acid 1-(6,7-dimethoxy-quinazolin-4-yl)-piperidin-4-yl ester] | 8 | 118 |
| COc1cc2ncnc(N3CCCC(OC(=O)Nc4ccc(C(C)C)cc4)C3)c2cc1OC (stereo not shown) [Compound 31, (4-Isopropyl-phenyl)-carbamic acid 1-[1-(6,7-dimethoxy-quinazolin-4-yl)-piperidin-3-yl]ester] | 670 | 1100 |
| COc1cc2ncnc(N3CCC(C(=O)Nc4ccc(OC(C)C)cc4)CC3)c2cc1OC [Compound 23, 1-(6,7-Dimethoxy-quinazolin-4-yl)-piperidine-4-carboxylic acid (4-isopropoxy-phenyl)-amide] | 185 | 176 |
